PMC5703966, “Systemic clearance and brain distribution of carbazole-based cyanine compounds as Alzheimer’s disease drug candidates” (Scientific Reports, 2017)
Like-named read-outs stand apart in the source and are kept apart here.

How the values were obtained:
[1] = Plasma binding by RED device; format: in vitro ADME, human; conditions: for plasma binding: human; for f u,plasma %: human plasma, RED device, 4 h, 37 °C; on all read-outs here: tested at 0.4 µM
Procedure: Nonspecific binding in plasma (f u, plasma), microsomes (f u, mic) and hepatocyte (f u, hep) were determined using the method seen in supplemental information (Supplemental Methods). […]
All validation compounds were incubated at 37 °C over 4 h, and in triplicate. For […]
plasma stability, 10 mM DMSO solutions of SLM and SLOH were diluted to 40 µM (10% DMSO). Plasma […]
shaking water bath (60 oscillations/min approx.). The assay was started by addition of 6 µL aliquots to […]
the plasma (final DMSO incubation concentration 0.1%). […]
MS/MS. Natural logarithm of peak area ratios (compound peak area normalized by IS peak area) were plotted against time and half-life calculated. […]
placed into the sample chamber (indicated by the red ring) with 400 µL of PBS into the adjacent chamber.
The plate was sealed with a self-adhesive lid and incubated at 37 °C on an orbital shaker (1.5 g approx.) for 4 h. Aliquots (100 µL) were removed from each side of the insert, and analyzed after protein precipitation using 4 folds acetonitrile (ACN) containing berberine chloride as internal standard (IS) by LC-MS/MS (Analytical me thod seen below). The experimental procedure outlined in the Thermo Scientific RED device systems brochure was adopted in the present study . […]

[2] = Systemic clearance and brain distribution in WT and 3 × Tg-AD mice (8 months); format: in vivo, mouse; conditions: mouse; for Kp: brain interstitial fluid (unbound) versus plasma (unbound), read-out: K puu,brain; for clearance / Vd / half-life / MRT inf: plasma; for Vd: read-out: Vdss; for MRT inf: read-out: MRT 0−∞
Procedure: (§1) The transgenic (Tg) AD mice (B6; 129-Psen1 ^tm1Mpm Tg (APPSwe, tauP301L) 1Lfa/Mmjax) and the corresponding wild-type (WT) (B6129SF2/J) mice was obtained from the Jackson Laboratory (Bar Harbor, Maine, USA), and maintained by the Animal Facility of Faculty of Health Sciences in University of Macau. Either 27 WT or AD mice (8 months) were randomly separated into 9 groups with 3 mice at each time point. Blood and brain were collected at time points 0.083, 0.167, 0.25, 0.5, 1, 2, 4, 8 and 16 hours after i.v. dosing (1 mg/kg). Mice were euthanized by isoflurane followed by cervical dislocation. All the plasma, urine, bile and brain samples were stored at −70 °C for subsequent analysis. The analytical methods for systemic and brain PK parameters were shown in supplemental information (Supplemental Methods).
(§2) Parameters in animals were determined using non-compartmental analysis. […] Systemic Cl p was calculated as the i.v. dose divided by AUC0−∞ ^iv. The terminal rate constant (K el) was calculated by a linear regression of the log-linear concentration-time curve, and the terminal elimination t 1/2 was calculated as 0.693 divided by K el. Mean residence time from t = 0 to infinity (MRT 0−∞) was calculated as AUMC 0−∞ divided by AUC 0−∞. Apparent steady-state distribution volume (Vd ss) was determined as Cl p multiplied by MRT 0−∞. […] The Cl bile was derived as the amount of (in milligrams) of SLM or SLOH in the bile over the 24-hour interval postdose/AUC0-24h. The influx clearance into brain (K in) was calculated by using the amount of drug in the brain (homogenate) at time t (A, brain (t)) (corrected for the amount of drug remaining in the cerebral vasculature) divided by plasma exposure up to this time point (AUC, plasma (0 − t)). The C u,brain was calculated by A brain (homogenate, ng/g brain) divided by V u,brain (mL/g brain). The unbound ISF to plasma ratio (K puu,brain) was calculated by unbound AUC 0−t of ISF (ng/mL × min) divided by unbound AUC 0–t (ng/mL × min) of plasma.

[3] = system: WT and 3 × Tg-AD mice; assay: as above; format: in vivo, mouse; conditions: for K in: 1 mg/kg i.v.; for K puu,brain in AD mice relative to WT mice: higher in AD mice
Procedure: as §1, §2

[4] = Liver microsomes stability with NADPH; format: in vitro ADME; conditions: human; for CLint scaled at 1 μM / microsomal CLint at 1 μM: liver microsomes, pH 7.4; for CLint scaled at 1 μM: read-out: Microsomes Cl int,scaled; for Microsomes scaled Cl hep: well-stirred model; for Microsomes Cl u, int,app: Cl int,app / f u,mic; for microsomal CLint at 1 μM: NADPH, read-out: Microsomes Cl int,app
[5] = in vitro; conditions: human, Caco-2
[6] = Brain distribution by brain slices experiment; format: in vitro ADME, mouse; conditions: mouse
Procedure: The unbound volume of distribution in the brain (V u, brain) was determined in fresh brain slices using the protocol published by Friden et al.[25].

[7] = 3×Tg-AD (B6;129-Psen1tm1Mpm Tg(APPSwe,tauP301L)1Lfa/Mmjax), iv, 1 mg/kg, AD mice 8 months, 1 mg/kg i.v.
[8] = 3×Tg-AD (B6;129-Psen1tm1Mpm Tg(APPSwe,tauP301L)1Lfa/Mmjax), iv, AD mice 8 months, 1 mg/kg i.v., read-out: Cl p (converted)
[9] = 3×Tg-AD (B6;129-Psen1tm1Mpm Tg(APPSwe,tauP301L)1Lfa/Mmjax), iv, AD mice 8 months, 1 mg/kg i.v.
[10] = B6129SF2/J (WT) and 3×Tg-AD, intravenous, 1 mg/kg, WT and AD mice (8 months), no significant difference, read-out: plasma clearance (converted)
[11] = B6129SF2/J (wild-type), iv, 1 mg/kg, WT mice 8 months, 1 mg/kg i.v.
[12] = B6129SF2/J (wild-type), iv, WT mice 8 months, 1 mg/kg i.v.
[13] = B6129SF2/J (wild-type), iv, WT mice 8 months, 1 mg/kg i.v., read-out: Cl p (converted)
[14] = iv, AD mice 8 months, 1 mg/kg i.v.

plasma binding [1] [%] | f u,plasma % [1] [%] | Kp [2, 7] | clearance [2, 8] [mL/min/kg] | Vd [2, 9] [L/kg] | clearance [2, 10] [mL/min/kg] | Kp [2, 11] | half-life [2, 12] [h] | clearance [2, 13] [mL/min/kg] | MRT inf [2, 12] [h] | Vd [2, 12] [L/kg] | half-life [2, 14] [h] | MRT inf [2, 14] [h] | K in ([3]; AD mice 8 months) [μL/min per g brain] | K in ([3]; WT mice 8 months) [μL/min per g brain] | K puu,brain in AD mice relative to WT mice [3] [fold] | CLint scaled at 1 μM [4] [mL/min/kg] | Microsomes scaled Cl hep [4] [mL/min/kg] | Microsomes Cl u, int,app [4] | microsomal CLint at 1 μM [4] [µL/min/mg] | SMILES | further results
> 95 | 0.170 ± 0.0400 | 8.1 | 10 | 2.3 ± 0.71 | ~10 | 0.98 ± 0.22 | 4.3 ± 1.1 | 7.5 | 3 ± 1.2 | 2.1 ± 0.45 | 4.8 ± 1.2 | 2.9 ± 0.38 | 4.00 ± 0.500 | 1.10 ± 0.100 | 8 | 82 ± 13 | 2 ± 0.333 | 1.00 ± 0.160^$ mL/min/mg | 70 ± 10 | COCCOCCn1c2ccccc2c2cc(/C=C/c3cc[n+](CCO)c4ccccc34)ccc21 [SLOH, (E)-1-(2-hydroxyethyl)-4-(2-(9-(2-(2-metho-xyethoxy)-ethyl)-9H-carbazol-3-yl)vinyl) quinolin-1-ium chloride] | Papp A→B at 1 μM [5]: 2.7 ×10⁻⁶ cm/s; efflux ratio at 1 μM [5]: 9; V u,brain (AD) [6]: 1.20 ± 0.240 mL/g brain; V u,brain (WT) [6]: 1.40 ± 0.400 mL/g brain
> 95 | 0.100 ± 0.0100 | 11 | 13.2 | 1.3 ± 0.32 | ~11.7 | 2.5 ± 0.44 | 6 ± 1 | 11.3 | 1.5 ± 0.18 | 1.3 ± 0.58 | 3.5 ± 1 | 1.7 ± 0.55 | 4.10 ± 1.10 | 1.70 ± 0.630 | 4 | 140 ± 19 | 1.67 ± 0.167 | 1.50 ± 0.200^$ mL/min/mg | 110 ± 20 | COCCOCCn1c2ccccc2c2cc(/C=C/c3cc[n+](C)c4ccccc34)ccc21.[I-] [SLM, (E)-4-(2-(9-(2-(2-methoxyethoxy)ethyl)-9H-carbazol-3-yl)-vinyl)-1-methyl-quinolin-1-iumiodide] | Papp A→B at 1 μM [5]: 2.5 ×10⁻⁶ cm/s; efflux ratio at 1 μM [5]: 34; V u,brain (AD) [6]: 1.50 ± 0.580 mL/g brain; V u,brain (WT) [6]: 2.10 ± 0.650 mL/g brain
